Reference: paper PMC3132048, “Treatment of experimental adjuvant arthritis with a novel folate receptor-targeted folic acid-aminopterin conjugate” (Arthritis Research & Therapy, 2011)
pIC50: −log10 of the molar value. “And” between values parts separate entries of the source, which are not always exact repeats. Equal entries are not always repeated.

What was measured:
[1] = target: T1, FRα (FRα-expressing KB cells) (Homo sapiens, UniProt P15328); assay: Relative affinity assay: displacement of [3H]FA from KB cells; type: binding; settings: 37°C, competitor of [3H]FA, inverse molar ratio to displace 50%
T1 construct: both KB cells and CHO-FRβ cells were used as the sources of FR; endogenous in cells; host or cells: KB cells
Experimental: (§1) The relative affinities of EC0746, AMT, and MTX were determined according to a previously established method except that both KB cells and CHO-FRβ cells were used as the sources of FR [33]. KB cells are a human cancer cell line known for elevated expression of FRα. CHO-FRβ cells were obtained from Manohar Ratnam, Department of Biochemistry and Cancer Biology, The University of Toledo (Toledo, OH, USA). This cell line was originally generated by stable integration and amplification of a human FRβ cDNA expression construct in CHO-K1 cells.

[2] = target: T2, human FRβ (CHO-FRβ cells) (Homo sapiens, UniProt P14207); assay: Relative affinity assay: displacement of [3H]FA from CHO-FRβ cells; type: binding; settings: 37°C, competitor of [3H]FA, inverse molar ratio to displace 50%
T2 construct: host or cells: CHO-K1 cells
Experimental: as §1

[3] = target: T3, dihydrofolate reductase (DHFR) (Mus musculus, UniProt P00375); assay: Dihydrofolate reductase inhibition assay in RAW264.7 whole cell lysates; type: cell-based, murine; settings: 100 nM plus 100-fold excess FA (10 μM), 2-hour pulse, 22-hour chase
T3 construct: endogenous in cells; host or cells: RAW264.7 cells (FR-positive subclone of ATCC TIB71)
T3 sequence (P00375 1-187): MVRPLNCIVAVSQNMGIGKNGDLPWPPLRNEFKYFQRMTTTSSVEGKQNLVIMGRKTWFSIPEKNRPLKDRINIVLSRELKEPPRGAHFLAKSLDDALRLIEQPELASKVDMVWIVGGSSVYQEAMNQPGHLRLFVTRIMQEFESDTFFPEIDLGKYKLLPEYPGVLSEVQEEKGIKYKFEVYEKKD
Experimental: RAW264.7 cells growing in FFRPMI medium in 10 cm cell culture dishes (BD Falcon, Lincoln Park, NJ, USA) were treated with EC0746 (100 nM), EC0746 (100 nM) plus 100-fold molar excess of FA (10 μM), or FA alone (10 μM). After a 2-hour exposure, the drug-containing media were replaced and the cells were allowed to incubate further for 22 hours in fresh FFRPMI medium (referred in the text as a 22-hour chase). Meanwhile, AMT and MTX were kept at 100 nM for the entire 24-hour incubation period. All cells were subsequently lysed in the radioimmunoprecipitation assay lysis buffer, and DHFR activities in the whole cell lysates were determined using a commercial DHFR assay kit (Sigma-Aldrich). This spectrophotometric assay monitors the enzymatic conversion of dihydrofolic acid to tetrahydrofolic acid by DHFR and the disappearance of the co-factor nicotinamide adenine dinucleotide phosphate at 340 nm. The results were normalized to the values of the untreated control cells.

RAW264.7 cells = type: cell-based, murine
Experimental: (§2) RAW264.7 cells in 96-well plates (3.5 × 10^4 cells/well) were treated with 10-fold serial dilutions of EC0746 (≤1 μM) in FFRPMI medium without and with 100-fold molar excess of FA. After a 2-hour exposure, the drug-containing media were replaced and the cells were allowed to incubate further for 70 hours (referred in the text as a 70-hour chase). In comparison, the cells were also treated continuously with AMT for 72 hours. Four hours prior to the end of incubation, LPS was added to the treated cells at a final concentration of 100 ng/ml. Then 100 μl culture supernatants were collected for TNFα analysis by ELISA. The cell viability was assessed by adding XTT to the remaining media for an additional 4 hours following the manufacturer's instructions. To evaluation of a cytostatic effect, RAW264.7 cells seeded at 1 × 10^6 cells/well in six-well plates were subjected to 2-hour exposure and a 70-hour chase with 0, 0.1, 10, and 1000 nM EC0746 without and with excess FA. At the end of the incubation (no LPS added), the surviving cells (that is, still viable cells) were recovered and redistributed in equal numbers in fresh medium for an additional 72 hours. The cell proliferation was again assessed by the XTT assay. All results were expressed as the percentage absorbance (minus background) relative to the untreated control cells.

[4] = system: TNFα production in RAW264.7 cells; assay: LPS-stimulated TNFα production (ELISA); type: cell-based, murine
Experimental: as §2

rat TG-macs = assay: Viability of thioglycollate-elicited peritoneal macrophages; type: cell-based; settings: 72-hour incubation; no effect at concentrations as high as stated
Experimental: Female Lewis rats (175 to 200 g) were purchased from Harlan Sprague Dawley (Indianapolis, IN, USA) and were allowed to acclimate for 1 week. To obtain peritoneal macrophages, rats were dosed intraperitoneally with an aged thioglycollate (TG) medium (20 ml/kg) and euthanized 3 days later. The peritoneal cavity of the animals was lavaged with 60 ml ice-cold phosphate-buffered saline to collect peritoneal exudate. The TG-elicited macrophages in the peritoneal fluids were obtained after a red cell lysing step and a 2-hour adherence in folate-free RPMI 1640 medium (Mediatech, Manassas, VA, USA) containing 1% heat-activated fetal calf serum and antibiotics. The purity of the resulting macrophage population (herein referred to as rat TG-macs) was determined to be ~90% pure based on CD11b/c expression (data not shown). […] Unless otherwise specified, all cells were maintained in the folate-free RPMI 1640 medium containing 10% heat-activated fetal calf serum and antibiotics (FFRPMI) under a 5% CO2 atmosphere.
Unlike RAW264.7 cells, rat TG-macs display little proliferative activity ex vivo and therefore were used in our studies to represent inflammatory macrophages in a low proliferative state. […] LPS (5 μg/ml) and IFNγ (100 ng/ml) were then added to the treated cells 24 hours prior to the end of incubation to stimulate the release of cytokines/chemokines, which were then detected with a rat cytokine antibody array.

[5] = Preliminary short-term toxicity / MTD in folate-deficient healthy rats; type: in vivo, rat; settings: folate-deficient rats
Experimental: The short-term toxicity and MTD of EC0746 and AMT were evaluated in healthy rats following the standard BIW subcutaneous dosing regimen used for efficacy studies. Further, these animals were put on a folate-deficient diet for ~20 days before treatment to match the folate deficiency status of AIA rats used for therapy. The folate-deficient but nonarthritic animals were thus given increasing doses of EC0746 and AMT for two consecutive weeks on a BIW basis. […] Standard hematologic and blood chemistry parameters were examined as needed along with histopathology.

T2 sequence (P14207 17-255): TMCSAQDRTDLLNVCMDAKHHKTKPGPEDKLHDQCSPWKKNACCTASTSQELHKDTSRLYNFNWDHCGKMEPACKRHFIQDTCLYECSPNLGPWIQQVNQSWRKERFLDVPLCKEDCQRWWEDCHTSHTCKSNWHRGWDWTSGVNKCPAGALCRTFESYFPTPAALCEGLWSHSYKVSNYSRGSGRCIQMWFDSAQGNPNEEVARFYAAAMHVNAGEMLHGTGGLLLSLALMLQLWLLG
T1 sequence (P15328 25-257): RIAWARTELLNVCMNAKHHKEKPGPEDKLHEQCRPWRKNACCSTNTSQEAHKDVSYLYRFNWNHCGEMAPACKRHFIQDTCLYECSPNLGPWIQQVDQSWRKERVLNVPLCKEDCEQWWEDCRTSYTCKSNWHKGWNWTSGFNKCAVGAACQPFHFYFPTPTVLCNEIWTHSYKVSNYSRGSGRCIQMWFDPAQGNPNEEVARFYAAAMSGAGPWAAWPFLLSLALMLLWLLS

In the case of Nc1nc(N)c2nc(CNc3ccc(C(=O)N[C@@H](CCC(=O)NNC(=O)OCCSSC[C@H](NC(=O)[C@H](CCC(=O)NC[C@H](O)[C@@H](O)[C@H](O)[C@H](O)CO)NC(=O)[C@H](CCC(=O)O)NC(=O)[C@H](CCC(=O)NC[C@H](O)[C@@H](O)[C@H](O)[C@H](O)CO)NC(=O)[C@H](CCC(=O)O)NC(=O)[C@H](CCC(=O)NC[C@H](O)[C@@H](O)[C@H](O)[C@H](O)CO)NC(=O)CC[C@H](NC(=O)c4ccc(NCc5cnc6nc(N)[nH]c(=O)c6n5)cc4)C(=O)O)C(=O)O)C(=O)O)cc3)cnc2n1 [EC0746], the “Relative affinity value (FA = 1)” value [1] was 0.50, the “Relative affinity value (FA = 1)” value [2] was 0.27 and the “DHFR inhibitory activity with excess FA” value [3] was “blocked by excess FA”. For the same molecule, the pIC50 (RAW264.7 cells; 2-hour pulse, 70-hour chase, read-out: Relative 50% inhibitory concentration, inhibition of cell proliferation (XTT)) was about 9.52, the “Antiproliferative effect competitive in presence of excess FA” value (RAW264.7 cells; 100-fold molar excess FA) was 100% and the “Proliferation of surviving cells redispersed into fresh medium” value (RAW264.7 cells; additional 72-hour incubation after 2-hour pulse plus 70-hour chase) was “could no longer divide”. The Maximum growth inhibition (RAW264.7 cells; concentrations ≥1 nM, 2-hour pulse, 70-hour chase) was ~ 50%, the pIC50 ([4]; 2-hour pulse, 70-hour chase, LPS 100 ng/ml last 4 hours, read-out: Relative 50% inhibitory concentration, TNFα after LPS stimulation) was about 8.80 and the “TNFα effect competitive by excess FA” value ([4]; 100-fold molar excess FA) was 100%. For the same molecule, the “Concentration affecting TG-macs viability” value (rat TG-macs) was over 10 µM, the “Gastrointestinal-associated side effects at respective MTD doses” value ([5]; compared with AMT) was “less of the gastrointestinal-associated side effects than AMT” and the “Difference in toxicity versus AMT (less toxic)” value ([5]; s.c., ratio of MTDs) was ~ 40 fold and 40 fold.
